Test results: PMC12974487, “Inhibition of FicD-mediated AMPylation and deAMPylation by isoprenoid diphosphates” (Proceedings of the National Academy of Sciences of the …, 2026)
Entries after “also recorded” stand apart in the source; their conditions may differ.

Target: T1, FicD^R374H (Homo sapiens, UniProt Q9BVA6, R374H)
T1 construct: Wild-type FicD (residues 105-458) and all mutants were expressed as N-terminal 6xHis-Sumo fusions; 6xHis-Sumo (N, cleaved yes); made in house; host or cells: Rosetta(DE3) E. coli
T1 sequence (Q9BVA6 105-458 R374H): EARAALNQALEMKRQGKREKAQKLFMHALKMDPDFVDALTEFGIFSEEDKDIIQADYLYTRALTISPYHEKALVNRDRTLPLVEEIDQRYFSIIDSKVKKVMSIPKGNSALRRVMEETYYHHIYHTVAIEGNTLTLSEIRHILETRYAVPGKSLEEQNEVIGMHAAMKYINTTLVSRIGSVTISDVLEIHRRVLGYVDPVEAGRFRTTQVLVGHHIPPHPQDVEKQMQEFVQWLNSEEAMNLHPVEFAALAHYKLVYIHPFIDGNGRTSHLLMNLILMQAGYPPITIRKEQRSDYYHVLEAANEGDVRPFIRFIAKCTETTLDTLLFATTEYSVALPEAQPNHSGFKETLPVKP
Experiment: AMPylation of Δ26hBiP^T229A by pathogenic variant FicD^R374H
Format: biochemical
Settings: indicated concentrations of FPP
Text: Fig. 5. Crystal structure of FPP inhibitor bound to FicD active site. […] FPP (cyan stick) and Mg^2+ (cyan sphere) in the pocket of FicD shown as APBS electrostatic surface with positive areas in blue, negative in red, and neutral in white (contour level: ±5 kBT/e) (Right). […] (C–E) AMPylation assays of Δ26hBiP^T229A in the presence of the indicated concentration of FPP using the pathogenic human variants (C) FicD^R371S, (D) FicD^R374H and (E) FicD^R374C. AMPylated BiP and Fic were quantified by immunodetection, and total BiP was quantified by CBB. […]
Isothermal Titration Calorimetry
Proteins were dialyzed against 25mM HEPES pH 7.4/100mM KCl/10% glycerol prior to titration.
Dialyzed proteins were then spun down at 21,000G for 15 minutes at 4C to remove trace insoluble material. The protein concentration was measured spectrophotometrically and then diluted to working concentration with 25mM HEPES pH 7.4/100mM KCl/10% glycerol. MgCl2 was added to proteins to a final concentration of 4mM. ITC experiments were performed in a Micro-Cal PEAQ-ITC (Malvern Panalytical, Worcestershire, UK) calorimeter with a stirred 206.2 μL reaction cell held at 20 °C. 250μM FPP was titrated into 25uM Δ104hFicL258D with 750rpm stirring. The first injection was 0.5 μL, followed by twenty 1.9 μL injections. […]
Thermogram and binding figures were plotted in […]

**Q.** How did the “FPP inhibition of FicD^R374H mediated AMPylation” value turn out when `CC(C)=CCC/C(C)=C/CC/C(C)=C/COP(=O)(O)OP(=O)(O)O` [FPP, farnesyl-pyrophosphate] was run?
**A.** The value was “inhibition; also recorded: inhibited”.
